{"source": "paper PMC6934184", "about": "“Selective DNA-PKcs inhibition extends the therapeutic index of localized radiotherapy and chemotherapy” (The Journal of Clinical Investigation, 2019)", "biological_target": "T1, MARK3 (Homo sapiens, UniProt P27448)", "T1 construct": "purchased Thermo Fisher Scientific (Life Technologies) SelectScreen", "T1 sequence (P27448 whole entry)": "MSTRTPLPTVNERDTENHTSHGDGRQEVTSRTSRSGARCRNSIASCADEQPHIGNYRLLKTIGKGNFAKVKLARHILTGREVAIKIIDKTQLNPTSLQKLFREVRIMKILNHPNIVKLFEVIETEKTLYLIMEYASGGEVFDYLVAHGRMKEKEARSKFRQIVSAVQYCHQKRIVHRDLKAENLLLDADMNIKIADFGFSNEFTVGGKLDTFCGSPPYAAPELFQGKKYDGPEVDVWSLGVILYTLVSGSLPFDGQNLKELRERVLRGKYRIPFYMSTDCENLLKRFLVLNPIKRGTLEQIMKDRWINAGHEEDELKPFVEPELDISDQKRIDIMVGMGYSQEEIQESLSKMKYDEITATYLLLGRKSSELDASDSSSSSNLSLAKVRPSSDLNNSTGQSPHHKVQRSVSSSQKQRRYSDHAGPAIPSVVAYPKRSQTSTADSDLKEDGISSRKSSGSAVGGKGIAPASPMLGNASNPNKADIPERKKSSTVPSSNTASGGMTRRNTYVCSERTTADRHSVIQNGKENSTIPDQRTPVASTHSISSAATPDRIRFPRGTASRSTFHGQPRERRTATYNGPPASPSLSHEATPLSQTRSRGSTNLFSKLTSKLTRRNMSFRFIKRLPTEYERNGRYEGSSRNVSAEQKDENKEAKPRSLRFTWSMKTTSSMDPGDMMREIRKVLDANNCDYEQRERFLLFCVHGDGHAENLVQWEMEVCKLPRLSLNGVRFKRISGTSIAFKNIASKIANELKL", "assay": "SelectScreen Z'LYTE", "type": "biochemical", "summary_of_the_method": "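SelectScreen broad panel; activity (Z'LYTE, Adapta) plus binding formats. ATP: Km app for CSF1R Z'LYTE; 10 for CAMK1 Adapta. Readout = % per kinase.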"}
{"compound": "CN(C(=O)CN1CCOCC1)c1ccc2sc3c(-c4cccc5c(=O)cc(N6CC7CCC(C6)O7)oc45)cccc3c2c1", "note": "[NU5455]", "values": [{"measurement": "inhibition at 1 µM", "result": 11.4, "unit": "%"}]}
